How the values were obtained:
Experiment in all cases: relative viability (nuclei count vs DMSO), 5 days (fraction); higher = more cells survive
[1] = compound: C1=CC2=C(C=C(C(=C2N=C1)O)N=NC3=CC4=C(C=C3)C=C(C=C4)S(=O)(=O)O)S(=O)(=O)O + Cc1cc(Nc2cc(N3CCN(C)CC3)nc(Sc3ccc(NC(=O)C4CC4)cc3)n2)n[nH]1 [Tozasertib] (partner 0.1 µM)
Procedure, shortened: (§1)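 Medians of duplicate plates are given as relative viability. That measure is the nuclei count in treated wells divided by the count in vehicle wells. Counts were taken on 4× images of lung cancer cell lines in 1536-well plates, 5 days after pin-tool dosing the day after seeding with one drug alone or a fixed anchor-drug dose plus five library-drug doses (not always all listed) in √10 steps.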

[2] = compound: O=C(NC1CCNCC1)c1n[nH]cc1NC(=O)c1c(Cl)cccc1Cl [AT-7519] + C[C@]1(O)C[C@@H](c2nc(-c3ccc4ccc(-c5ccccc5)nc4c3)c3c(N)nccn32)C1 [Linsitinib] (partner 1 µM)
Procedure, shortened: as §1

[3] = compound: O=C(NC1CCNCC1)c1n[nH]cc1NC(=O)c1c(Cl)cccc1Cl [AT-7519] + CC1(C)CCC(c2ccc(Cl)cc2)=C(CN2CCN(c3ccc(C(=O)NS(=O)(=O)c4ccc(N[C@H](CCN5CCOCC5)CSc5ccccc5)c(S(=O)(=O)C(F)(F)F)c4)cc3)CC2)C1 [Navitoclax] (partner 0.5 µM)
Procedure, shortened: as §1

[4] = compound: O=C(NC1CCNCC1)c1n[nH]cc1NC(=O)c1c(Cl)cccc1Cl [AT-7519] + CC(=O)c1c(C)c2cnc(Nc3ccc(N4CCNCC4)cn3)nc2n(C2CCCC2)c1=O [Palbociclib] (partner 0.5 µM)
Procedure, shortened: as §1

Row | Cell Line | relative viability ([1]; first compound 0.08 µM) | relative viability ([1]; first compound 0.253 µM) | relative viability ([1]; first compound 0.8 µM) | relative viability ([1]; first compound 2.53 µM) | relative viability ([1]; first compound 8 µM) | relative viability ([2]; first compound 0.01 µM) | relative viability ([2]; first compound 0.03162 µM) | relative viability ([2]; first compound 0.3162 µM) | relative viability ([2]; first compound 1 µM) | relative viability ([3]; first compound 0.01 µM) | relative viability ([3]; first compound 0.03162 µM) | relative viability ([3]; first compound 0.3162 µM) | relative viability ([3]; first compound 1 µM) | relative viability ([4]; first compound 0.01 µM) | relative viability ([4]; first compound 0.03162 µM) | relative viability ([4]; first compound 0.3162 µM) | relative viability ([4]; first compound 1 µM)
1 | NCI-H3122 | 0.371 | 0.37 | 0.405 | 0.514 | 0.378 | 0.971 | 1.03 | 1.06 | 0.421 | 1.02 | 1.07 | 1.06 | 0.558 | 0.212 | 0.506 | 0.221 | 0.145
2 | COR-L23 | 0.22 | 0.173 | 0.247 | 0.197 | 0.233 | 0.82 | 0.776 | 0.481 | 0.137 | 1.24 | 1.15 | 0.774 | 0.138 | 0.306 | 0.28 | 0.265 | 0.157
3 | NCI-H2087 | 0.237 | 0.258 | 0.238 | 0.237 | 0.267 | 1.07 | 1.1 | 0.78 | 0.141 | 1.03 | 0.964 | 1.04 | 0.0625 | 0.226 | 0.224 | 0.186 | 0.116
4 | LC-2-ad | 0.518 | 0.476 | 0.376 | 0.519 | 0.325 | 0.754 | 0.832 | 0.908 | 0.464 | 0.312 | 0.487 | 0.367 | 0.214 | 0.497 | 0.466 | 0.484 | 0.372
5 | NCI-H1915 | 0.471 | 0.445 | 0.463 | 0.436 | 0.437 | 1.08 | 1.05 | 1.11 | 0.909 | 0.817 | 0.83 | 0.758 | 0.785 | 0.592 | 0.509 | 0.608 | 0.39
6 | NCI-H1793 | 0.436 | 0.301 | 0.395 | 0.449 | 0.396 | 1.06 | 0.945 | 0.74 | 0.684 | 0.352 | 0.416 | 0.313 | 0.365 | 0.309 | 0.299 | 0.305 | 0.285
7 | NCI-H2023 | 0.398 | 0.311 | 0.411 | 0.347 | 0.36 | 0.731 | 0.699 | 0.626 | 0.329 | 1.1 | 0.938 | 0.847 | 0.323 | 0.393 | 0.401 | 0.243 | 0.0824
8 | COR-L 105 | 0.355 | 0.37 | 0.367 | 0.361 | 0.378 | 0.962 | 0.907 | 0.867 | 0.516 | 0.766 | 0.721 | 0.644 | 0.347 | 0.382 | 0.416 | 0.371 | 0.354
9 | RERF-LC-KJ | 0.506 | 0.601 | 0.512 | 0.519 | 0.509 | 0.914 | 0.848 | 1.03 | 0.811 | 1.04 | 0.981 | 0.848 | 0.408 | 1.09 | 1.13 | 0.86 | 0.55
